Laboratory results reported in publication PMC11642016 (International Journal of Molecular Sciences, 2024).
“And” between values parts separate entries of the source, which are not always exact repeats. Equal entries are not always repeated. Where two headings read alike, the source gives them in different places.

Columns and labels:
PANC-1 cells = assay: CellTiter-Glo luminescent cell viability assay, PANC-1
Experimental: Primary fibroblast cultures were prepared from human skin biopsies and maintained in DMEM supplemented with 10% FBS, 1% penicillin-streptomycin, and 1% MEM Non-Essential Amino Acids Solution (Thermo Fisher Scientific). […] All cell lines were cultured in a humidified atmosphere at 37 °C and 5% CO2, passaged twice a week, and the experiments were performed on cells between passage 5 and 15. The cell lines were routinely screened for the absence of mycoplasma infection (DAPI staining).
The effects of the synthesized compounds on cell viability were measured using the CellTiter-Glo® luminescent cell viability assay (Promega, Madison, WI, USA), according to the manufacturer’s instructions. Briefly, cells were seeded onto a flat-bottomed, white 96-well plate (BRANDplates, cat. no.: 781965)), with the following densities: PANC-1: 750 cells/well, Fadu: 2000 cells/well, primary fibroblasts: 2000 cells/well, HEK293T WT: 1000 cells/well, HEK293T CLPP^−/−: 2500 cells/well. After seeding, cells were incubated for a further 48 h before treatment. Cells were treated with the compounds for 72 h. Three concentrations (25.0 µM; 8.3 µM; 2.8 µM) were applied during the initial cell viability screening, while for the determination of dose–response curves, 1.5-fold serially diluted compound concentrations were applied (range: 26 µM–0.7 µM). After treatment, the luminescence signal was recorded using a microplate reader (BioTek Synergy 2 Multi-Mode Reader, BioTek, Winooski, VT, USA).
Data analysis was performed using GraphPad Prism 9.5.0 software (GraphPad Software, San Diego, CA, USA). […] The dose–response curves were generated by four-parameter nonlinear regression, and the IC50 values were determined as the means ± SEM of the best-fit values of 3 independent measurements. The R^2 values were consistently above 0.93, indicating a strong fit of the model to the experimental data (Supplementary S.89). […] Dunnett’s post hoc test was applied to adjust for multiple comparisons, minimizing the likelihood of false positive results. Assumptions for ANOVA, including normality (assessed via QQ plots) and homogeneity of variance (tested using the Brown–Forsythe test), were verified. The following significance levels were applied: * p < 0.05, ** p < 0.01, *** p < 0.001, **** p < 0.0001. […] The tumor selectivity of the compounds was quantitatively characterized by the selectivity index (SI). This parameter was calculated as the ratio of the average best-fit IC50 value for primary fibroblasts and the best-fit IC50 value for the corresponding tumor cells (PANC-1 or Fadu).

[1] = system: non-tumorous primary fibroblast cells; assay: CellTiter-Glo luminescent cell viability assay, primary fibroblasts; conditions: for Primer fibroblast Cell viability (% of controll): dose–response, individual replicates; for IC50: Homo sapiens, Fibroblast
[2] = as above; conditions: human, primary skin fibroblasts (non-tumorous), Primer fibroblast Cell viability (% of controll), 72 h, dose–response, individual replicates
Fadu cells = assay: CellTiter-Glo luminescent cell viability assay, Fadu
[3] = 0.7 μM, 72 h, dose–response, individual replicates
[4] = 1 μM, 72 h, dose–response, individual replicates
[5] = 1.5 μM, 72 h, dose–response, individual replicates
[6] = 2.3 μM, 72 h, dose–response, individual replicates
[7] = 3.4 μM, 72 h, dose–response, individual replicates
[8] = 5.1 μM, 72 h, dose–response, individual replicates
[9] = 7.7 μM, 72 h, dose–response, individual replicates
[10] = 17.3 μM, 72 h, dose–response, individual replicates
[11] = 26 μM, 72 h, dose–response, individual replicates

For `CNCC#Cc1cccc(CN2C(=O)C3=C(CCN(Cc4ccc(-n5cc(-c6cccc(F)c6)nn5)cc4)C3)N3CCN=C23)c1` [43a], the “PANC-1 Cell viability (% of controll)” value (PANC-1 cells; [3]) was 108 % of controll and 111 % of controll, the “PANC-1 Cell viability (% of controll)” value (PANC-1 cells; [4]) was 112 % of controll and 115 % of controll and the “PANC-1 Cell viability (% of controll)” value (PANC-1 cells; [5]) was 102 % of controll and 112 % of controll. For the same compound, the “PANC-1 Cell viability (% of controll)” value (PANC-1 cells; [6]) was 93 % of controll and 84 % of controll and 107 % of controll, the “PANC-1 Cell viability (% of controll)” value (PANC-1 cells; [7]) was 0 % of controll and the “PANC-1 Cell viability (% of controll)” value (PANC-1 cells; [8]) was 0 % of controll. The “PANC-1 Cell viability (% of controll)” value (PANC-1 cells; [9]) was 0 % of controll, the “PANC-1 Cell viability (% of controll)” value (PANC-1 cells; [10]) was 0 % of controll and the “PANC-1 Cell viability (% of controll)” value (PANC-1 cells; [11]) was 0 % of controll. It also gave an IC50 (PANC-1 cells; Homo sapiens, PANC-1, 72 h, read-out: IC50 Value ± SEM PANC-1, 72 h treatment, best-fit values, n = 3) of 2.5 ± 0.94 µM, a viability at 0.7 µM (PANC-1 cells; Homo sapiens, PANC-1, 72 h, read-out: PANC-1 Cell viability (% of controll), 0.7 μM, 72 h, dose–response, individual replicates) of 114% and a viability at 1 µM (PANC-1 cells; Homo sapiens, PANC-1, 72 h, read-out: PANC-1 Cell viability (% of controll), 1 μM, 72 h, dose–response, individual replicates) of 110%. It also gave a viability at 1.5 µM (PANC-1 cells; Homo sapiens, PANC-1, 72 h, read-out: PANC-1 Cell viability (% of controll), 1.5 μM, 72 h, dose–response, individual replicates) of 102%, a viability at 3.4 µM (PANC-1 cells; Homo sapiens, PANC-1, 72 h, read-out: PANC-1 Cell viability (% of controll), 3.4 μM, 72 h, dose–response, individual replicates) of 0% and a viability at 5.1 µM (PANC-1 cells; Homo sapiens, PANC-1, 72 h, read-out: PANC-1 Cell viability (% of controll), 5.1 μM, 72 h, dose–response, individual replicates) of 0%. It also gave a viability at 7.7 µM (PANC-1 cells; Homo sapiens, PANC-1, 72 h, read-out: PANC-1 Cell viability (% of controll), 7.7 μM, 72 h, dose–response, individual replicates) of 0%, a viability at 17.3 µM (PANC-1 cells; Homo sapiens, PANC-1, 72 h, read-out: PANC-1 Cell viability (% of controll), 17.3 μM, 72 h, dose–response, individual replicates) of 0% and a viability at 26 µM (PANC-1 cells; Homo sapiens, PANC-1, 72 h, read-out: PANC-1 Cell viability (% of controll), 26 μM, 72 h, dose–response, individual replicates) of 0%. The IC50 (PANC-1 cells; Homo sapiens, PANC-1, read-out: PANC-1 IC50 values, Mean, mean of independently fitted replicate IC50 values (Supplement S.6)) was 2.48 µM, the “Selectivity Index (SI) Fibroblast/PANC-1” value (PANC-1 cells; ratio of mean best-fit IC50 for primary fibroblasts and best-fit IC50 for PANC-1) was 1.3 and the “Primer fibroblast Cell viability (% of controll)” value ([1]; 0.7 μM, 72 h) was 107 % of controll. For the same compound, the “Primer fibroblast Cell viability (% of controll)” value ([1]; 1 μM, 72 h) was 108 % of controll and 106 % of controll, the “Primer fibroblast Cell viability (% of controll)” value ([1]; 1.5 μM, 72 h) was 114 % of controll and 125 % of controll and 99 % of controll and the “Primer fibroblast Cell viability (% of controll)” value ([1]; 2.3 μM, 72 h) was 101 % of controll and 104 % of controll. For the same compound, the “Primer fibroblast Cell viability (% of controll)” value ([1]; 3.4 μM, 72 h) was 34 % of controll and 29 % of controll, the “Primer fibroblast Cell viability (% of controll)” value ([1]; 5.1 μM, 72 h) was 0 % of controll and the “Primer fibroblast Cell viability (% of controll)” value ([1]; 7.7 μM, 72 h) was 0 % of controll. The “Primer fibroblast Cell viability (% of controll)” value ([1]; 17.3 μM, 72 h) was 0 % of controll, the “Primer fibroblast Cell viability (% of controll)” value ([1]; 26 μM, 72 h) was 0 % of controll and the IC50 ([1]; 72 h, read-out: IC50 Value ± SEM Primary Fibroblast, 72 h treatment, best-fit values, n = 3) was 3.2 ± 0.07 µM. The IC50 ([1]; read-out: Primary fibroblast IC50 values, Mean, mean of independently fitted replicate IC50 values (Supplement S.6), ONC201 value mathematically estimated from inflection point) was 3.23 µM, the viability at 72 h, 0.7 µM ([2]; 0.7 μM) was 99% and the viability at 72 h, 1 µM ([2]; 1 μM) was 109%. The viability at 72 h, 2.3 µM ([2]; 2.3 μM) was 111%, the viability at 72 h, 3.4 µM ([2]; 3.4 μM) was 35% and the viability at 72 h, 5.1 µM ([2]; 5.1 μM) was 0%. For the same compound, the viability at 72 h, 7.7 µM ([2]; 7.7 μM) was 0%, the viability at 72 h, 17.3 µM ([2]; 17.3 μM) was 0% and the viability at 72 h, 26 µM ([2]; 26 μM) was 0%. For the same compound, the “Fadu Cell viability (% of controll)” value (Fadu cells; [3]) was 109 % of controll, the “Fadu Cell viability (% of controll)” value (Fadu cells; [4]) was 109 % of controll and the “Fadu Cell viability (% of controll)” value (Fadu cells; [5]) was 104 % of controll and 103 % of controll. The “Fadu Cell viability (% of controll)” value (Fadu cells; [6]) was 80 % of controll and 88 % of controll, the “Fadu Cell viability (% of controll)” value (Fadu cells; [7]) was 71 % of controll and 29 % of controll and 38 % of controll and the “Fadu Cell viability (% of controll)” value (Fadu cells; [8]) was 5 % of controll and 0 % of controll. The “Fadu Cell viability (% of controll)” value (Fadu cells; [9]) was 0 % of controll, the “Fadu Cell viability (% of controll)” value (Fadu cells; [10]) was 0 % of controll and the “Fadu Cell viability (% of controll)” value (Fadu cells; [11]) was 0 % of controll. For the same compound, the viability at 0.7 µM (Fadu cells; Homo sapiens, FaDu, 72 h, read-out: Fadu Cell viability (% of controll), 0.7 μM, 72 h, dose–response, individual replicates) was 108%, the viability at 1 µM (Fadu cells; Homo sapiens, FaDu, 72 h, read-out: Fadu Cell viability (% of controll), 1 μM, 72 h, dose–response, individual replicates) was 112% and the viability at 1.5 µM (Fadu cells; Homo sapiens, FaDu, 72 h, read-out: Fadu Cell viability (% of controll), 1.5 μM, 72 h, dose–response, individual replicates) was 103%. It also gave a viability at 2.3 µM (Fadu cells; Homo sapiens, FaDu, 72 h, read-out: Fadu Cell viability (% of controll), 2.3 μM, 72 h, dose–response, individual replicates) of 95%, a viability at 7.7 µM (Fadu cells; Homo sapiens, FaDu, 72 h, read-out: Fadu Cell viability (% of controll), 7.7 μM, 72 h, dose–response, individual replicates) of 0% and a viability at 17.3 µM (Fadu cells; Homo sapiens, FaDu, 72 h, read-out: Fadu Cell viability (% of controll), 17.3 μM, 72 h, dose–response, individual replicates) of 0%. It also gave a viability at 26 µM (Fadu cells; Homo sapiens, FaDu, 72 h, read-out: Fadu Cell viability (% of controll), 26 μM, 72 h, dose–response, individual replicates) of 0%, an IC50 (Fadu cells; Homo sapiens, FaDu, 72 h, read-out: IC50 Value ± SEM Fadu, 72 h treatment, best-fit values, n = 3) of 3.2 ± 0.1 µM and an IC50 (Fadu cells; Homo sapiens, FaDu, read-out: Fadu IC50 values, Mean, mean of independently fitted replicate IC50 values (Supplement S.6)) of 3.18 µM. For the same compound, the “Selectivity Index (SI) Fibroblast/Fadu” value (Fadu cells; ratio of mean best-fit IC50 for primary fibroblasts and best-fit IC50 for Fadu) was 1.0.
